According to patent publication US20240156764A1, “INHIBITION OF URACIL DNA GLYCOSYLASE IN THE OPEN CONFORMATION” (CASE WESTERN RESERVE UNIVERSITY, priority 2022, published 2024):
Values joined by “and” are separate entries in the source; they are usually repeats but may differ in a detail not shown here. Equal values may be shown once. Read-outs that look alike come from different tables or passages of the source.

Experiments:
[1] = target: T1, human UDG (Homo sapiens, UniProt P13051); assay: Gel-based DNA cleavage assay with a single U:A basepair; type: biochemical; design: 6xHis; purchased XTAL Biostructures; host or cells: Sf9 insect cells
Method: 20% polyacrylamide nucleic acid urea gel electrophoresis was used to resolve the DNA bands at room temperature, 200 v for 50 min. Analysis and quantification of DNA cleavage were done as follows. A background subtraction step was included using the 23mer from the DNA only lane. […] A single oxo-guanine: cytosine base pair DNA with a Cy3 fluorescent tag on the 3′ end was used (10 nM).
Following pre-incubation occurred for 20 min at 37° C., 2 μL of U:A DNA (500 nM stock) was added to initiate the reaction, total reaction volume of 50 μL/well. Each plate was incubated for 120 min at 37° C. Then, each 96 well plate was sealed and heated at a constant temperature of 95° C. for 55 min using the CFX96 real time system thermocycler. After the heating process, 5 μL of a bromophenol blue denaturing loading dye (20milligrams of bromophenol blue, 9.7 ml of formamide plus 300 μL of 10M NaOH) was added to each reaction well. […] TBE buffer was prepared by dissolving 54 grams of tris base, 28 grams of boric acid, and 4.5 grams of EDTA in 1.0 liter of distilled H2O. Gels were processed at 200V for 60 min in the dark. Gels were imaged based on the fluorescent tags using Typhoon Trio+Variable Mode Imager (Amersham Biosciences) with excitation and emission wavelengths set to 532 nm and 585 nm respectively, photomultiplier tube voltage (PMT) was set to 400V, and pixel size resolution set to 100 μm. Gel data were analyzed using ImageJ software. DNA bands were corrected using a background subtraction step. Percent cleavage was calculated by using fluorescence intensity of the cleaved 23-mer DNA strand divided by the sum of the fluorescence bands (23mer+40mer DNA strands)*100. Relative percent cleavage was generated by using the untreated DMSO condition divided by each treated drug dose*100.
Target sequence in this assay (P13051 1-304 isoform P13051-2): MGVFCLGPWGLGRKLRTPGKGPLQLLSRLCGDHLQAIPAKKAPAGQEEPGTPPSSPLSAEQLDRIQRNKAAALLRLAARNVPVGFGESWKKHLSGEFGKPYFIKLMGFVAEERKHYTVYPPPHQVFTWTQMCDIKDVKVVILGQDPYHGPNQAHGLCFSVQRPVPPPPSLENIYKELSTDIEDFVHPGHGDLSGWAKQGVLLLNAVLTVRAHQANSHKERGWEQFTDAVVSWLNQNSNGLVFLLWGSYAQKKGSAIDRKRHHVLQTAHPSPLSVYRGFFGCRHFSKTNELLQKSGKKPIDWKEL

[2] = system: uracil removal in wild type HAP cells; assay: Host-cell reactivation assay, uracil removal, wild type HAP cells; type: cell-based, human; conditions: ATA 5.0 μM
Method: (§1) A: MCF-7 cells were seeded at 50,000 cells per well in a 12-well plate. B: HAP cells (wild type or UNG gene knockout) were seeded at 75,000 cells per well in a 6-well plate. […] After 24 hours, cells were dissociated by trypsinization and analyzed by flow cytometry using an Atune NxT flow cytometer. Gating and compensation were determined by transfection of single-color controls. Reporter expression was calculated for each dose of ATA as previously described in publications and normalized to DMSO treatment.
(§2) Removal of uracil in cells was measured using a reporter plasmid containing a dU:dG base pair (referred to as BFP_U), as described previously. […] The reciprocal of BFP_U reporter expression was calculated for each experimental condition. […] This creates a premature stop codon, completely abolishing fluorescence. Removal of thymidine followed by insertion of dC opposite dG restores reporter fluorescence.
(§3) Human breast cancer MCF-7 cells were seeded at 50,000 cells per well in a 12-well plate, while HAP cells (wild type or UNG knockout) were seeded at 75,000 cells per well in a 6-well plate. […] After 24 hours, cells were dissociated by trypsinization and analyzed by flow cytometry using an Atune NxT flow cytometer. Gating and compensation were determined by transfection of single-color controls. […]

[3] = target: T1, human UDG; assay: Time course of human UDG activity on uracil DNA hairpin; type: biochemical; design: Bacterially expressed and purified full-length human UDG; made in house
Text: RFU was monitored over time. Each point on plot represents an average of three replicates. Error bar represents standard deviation from the mean. […] Each data point on the plot is the average of 3 wells (DMSO condition). Error bars represent standard deviation from the mean. […] UDG protein was not added to each reaction. […] Fluorescently labeled FAM-uDNA hairpin was monitored over the melting of the DNA hairpin. […] Each point represents an average of 4 experimental wells. Y Error bars represent the standard deviation from the mean.
To better examine UDG inhibitor activity, we monitored human UDG activity over time.
Target sequence in this assay (P13051 whole entry): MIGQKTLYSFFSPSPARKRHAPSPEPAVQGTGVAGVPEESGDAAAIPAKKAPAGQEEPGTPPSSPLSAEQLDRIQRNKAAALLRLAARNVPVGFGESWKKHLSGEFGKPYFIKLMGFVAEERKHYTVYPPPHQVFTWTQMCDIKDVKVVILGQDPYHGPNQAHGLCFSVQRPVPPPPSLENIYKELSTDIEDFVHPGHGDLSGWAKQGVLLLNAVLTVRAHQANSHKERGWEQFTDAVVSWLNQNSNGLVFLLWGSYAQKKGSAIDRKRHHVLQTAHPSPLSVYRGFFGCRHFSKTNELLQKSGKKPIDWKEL

[4] = system: uracil removal (U:G base pair) in MCF-7 cells; assay: Host-cell reactivation assay, uracil removal from reporter plasmid, MCF-7; type: cell-based, human
Method: as §1
Panel A: 1.25 μM and panel B: 2.5 μM. Reporter expression was calculated for each dose of ATA as described in prior publications and normalized to DMSO treatment.
as §2
as §3, with “cytometer.” for “cytometer. Gating and compensation were determined by transfection of single-color controls.”

[5] = system: A:8oxoG (MPG, MUTYH) repair in MCF-7 cells; assay: Host-cell reactivation assay, A:8oxoG reporter, MCF-7; type: cell-based, human; conditions: ATA 2.5 μM

In the case of `O=C(O)C1=CC(=C(c2ccc(O)c(C(=O)O)c2)c2ccc(O)c(C(=O)O)c2)C=CC1=O` [ATA, aurintricarboxylic acid], the “UDG-mediated DNA cutting activity” value ([1]; ATA 0.46-12.5 μM, UDG 500 pM, DNA 20 nM) is reported as “diminishes UDG-mediated DNA cutting activity in a dose-dependent manner”, the IC50 ([1]; dsDNA oligo with single U:A base pair, gel-based, read-out: average IC50 towards UDG) is reported as 700 nM and ~700 nM and the IC50 ([1]; estimated, read-out: IC50, DNA cutting) is reported as 700 nM. For the same molecule, the “reduction of uracil removal in wild type cells” value [2] was 1.8 fold, the “share of the effect of UDG knockout” value [2] was 60% and the “reduction of UDG-mediated un-quenching of u-DNA hairpin” value ([3]; ATA below 250 nM, fixed DNA substrate, 5-hour time course) was “unable to significantly compete”. For the same molecule, the “UDG activity over time” value ([3]; ATA fixed dose of 500 nM, range of uracil DNA hairpin concentrations) was “persistently diminished UDG activity”, the “uracil removal in MCF-7 cells” value ([4]; ATA 2.5 μM, 24 hr) was “significantly inhibited uracil removal” and the “uracil removal in MCF-7 cells at increasing concentrations” value ([4]; ATA up to 10 μM vs 2.5 μM) was “not statistically different from the 2.5 μM dose”. The “inhibition of repair of A:8oxoG basepair” value [5] was “not inhibiting”.
